Experiments:
[1] = system: collagen-induced arthritis (CIA) mice; experiment: Collagen-induced arthritis mice: clinical score, treadmill, histology, radiology; type: in vivo
splenocytes of CIA mice = experiment: Cytokine ELISA on splenocytes of CIA mice; type: in vivo; settings: mean ± SD, 5 mice
Experimental: The production of IL-2, IL-4, IL-6, and IFN-γ from mitogen-stimulated splenocytes was determined as previously described (Chouaib, S.; Welte, K.; Mertelsman, R.; Dupont, B.; J. Immunol., 1985, 135, 1172-1179). Spleens were gently teased with forceps in the culture medium producing a suspension of spleen cells (CM, RPMI 1640 containing 10% fetal bovine serum, 2 mM L-glutamine, 1×10^5 units/L of penicillin and streptomycin). The red blood cells were lysed with 3 mL of lysing buffer (0.16 mol/L ammonia chloride Tris buffer, pH 7.2) at 37° C. for 5 minutes. The cells were then washed with CM twice. The cell concentrations were counted and adjusted to 2×10^6 cells/mL. Splenocytes ([…]) were cultured in triplicate on 96-well flat-bottom culture plates. Splenocytes (0.1 mL/well) were stimulated with ConA (1×10^−2 g/L, 0.1 mL/well) to induce IL-2, IL-4 and IFN-γ production. In other plates, splenocytes were cultured with lipopolysaccharide (1×10^−6 g/L) to induce IL-6 production. These plates were incubated at 37° C., 5% CO2; the culture time for IL-2, IL-4 and IL-6 is 24 hours (or 72 hours for IFN-γ). After incubation, supernatants were collected and stored at −70° C. The cytokines were determined by sandwich ELISA as previously described using a commercial kit.
To establish whether the protective effect of the feijoa fruit extract was related to the anti-inflammatory response observed in the CIA mice, pro-inflammatory cytokines (TNF-α, IL-2 and INF-γ) were investigated using the ELISA assay described in Example 3 (Table 9). It is well known that such cytokines play crucial roles in joint destruction by damaging the synovial cells within the joint. Consequently, a reduction in synovial cells within the joint results in an increase in friction, which in turn, results in inflammation and the potential development of arthritis.

[2] = day 56-79, diet with extract (1.8 mg/day) or 10 mg/kg methotrexate, mean ± SD, 5 mice

SMILES: CN(Cc1cnc2nc(N)nc(N)c2n1)c1ccc(C(=O)N[C@@H](CCC(=O)O)C(=O)O)cc1 [Methotrexate, methotrexate]
- Clinical Score (paw swelling) ([1]; day 56-79, diet with extract (1.8 mg/day) or 10 mg/kg methotrexate, 5 mice): 10.5 ± 0.7
- Foot pressure (treadmill) [1, 2]: 141.23 ± 5.28
- Running Speed (treadmill) [1, 2]: 121.36 ± 1.69 mm/s
- Histological evaluation of joint sections (H&E) ([1]; end of trial, FIGS. 2, 3): relatively normal joint structures with little soft tissue swelling
- IFN-γ level by splenocytes (splenocytes of CIA mice): 182 ± 21 pg/mL
- IL-2 level by splenocytes (splenocytes of CIA mice): 104 ± 10 pg/mL
- TNF-α level by splenocytes (splenocytes of CIA mice): 255 ± 15 pg/mL

Source: patent US11065292B2, “Feijoa fruit extract” (CALLAGHAN INNOVATION, priority 2012, dated 2021)
